The conditions of data set [1]: 10 mL concentrate in 250 mL infusion diluent, cited from earlier work.
Data set [2] is described as follows: Predicted shelf-life (t90) of meropenem from degradation kinetics. Format: physicochemical. How it is done: The stability and degradation kinetics of meropenem have been studied. Meropenem is predicted to have a shelf-life (t90) of about 0.5 day at 0° C. Extrapolated to −25° C., the predicted shelf-life is less than one month. Meropenem also polymerizes at higher drug concentration by a second-order mechanism. If one requires a meropenem formulation that is ready-to-use, there is value in being able to stabilize these compounds in frozen aqueous media.

For data set [3] the following is noted: stored at or below −20° C.; cited from earlier work.

Like-named read-outs stand apart in the source and are kept apart here. A value given as a limit tells only on which side of the number the result lay.

Turning to `CCC(C)CC(C)CCCCCCCCC(=O)N[C@H]1C[C@@H](O)[C@@H](NCCN)NC(=O)[C@@H]2[C@@H](O)CCN2C(=O)[C@H]([C@H](O)CCN)NC(=O)[C@H]([C@H](O)[C@@H](O)c2ccc(O)cc2)NC(=O)[C@@H]2C[C@@H](O)CN2C(=O)[C@H]([C@@H](C)O)NC1=O` (some centres unmarked) [Caspofungin, Caspofungin acetate], the “Time within which the infusion solution must be used” value in data set [1] (stored at ≦25° C.) is ≤ 24 h; in data set [1] (stored refrigerated at 2 to 8° C.) it was ≤ 48 h.

For the compound `C[C@@H](O)[C@H]1C(=O)N2C(C(=O)O)=C(S[C@@H]3CN[C@H](C(=O)N(C)C)C3)[C@H](C)[C@H]12` [Meropenem], the “Predicted shelf-life (t90)” value in data set [2] (at 0° C.) is on record as “about 0.5 day”. For the same compound, in data set [2] (extrapolated to −25° C.), the Predicted shelf-life entry is recorded as “less than one”.

As for `CO/N=C(\C(=O)N[C@@H]1C(=O)N2C(C(=O)O)=C(CSc3nc(=O)c(=O)[nH]n3C)CS[C@H]12)c1csc(N)n1` [ceftriaxone sodium], in data set [3], the “Time for which the frozen agent is stable” value is given as “at least 18 months”.

Values taken from patent US8183233B2, “Stable pharmaceutical formulations” (Baxter International Inc., priority 2008, dated 2012).
